Measurements taken from the supplement of paper PMC10307832.

Tests used:
Experiment in all cases: relative viability (nuclei count vs DMSO), 5 days (fraction); higher = more cells survive
Lestaurtinib + AZD7762 = compound: C[C@]12O[C@H](C[C@]1(O)CO)n1c3ccccc3c3c4c(c5c6ccccc6n2c5c31)CNC4=O [Lestaurtinib] + NC(=O)Nc1cc(-c2cccc(F)c2)sc1C(=O)N[C@H]1CCCNC1 [AZD7762] (partner 0.2 µM)
Method in brief: (§1)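 Values are medians from duplicate plates. Each reflects relative viability, defined as the nuclei count of treated wells over that of vehicle wells. Lung cancer cell lines in 1536-well plates were pin-tool dosed one day after seeding with one drug alone or with a fixed anchor-drug dose plus five library-drug doses (not always all listed) in √10 steps, then fixed, stained and imaged at 4× after 5 days.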

[1] = compound: C[C@]12O[C@H](C[C@]1(O)CO)n1c3ccccc3c3c4c(c5c6ccccc6n2c5c31)CNC4=O [Lestaurtinib] + CC1(C)CCC(c2ccc(Cl)cc2)=C(CN2CCN(c3ccc(C(=O)NS(=O)(=O)c4ccc(N[C@H](CCN5CCOCC5)CSc5ccccc5)c(S(=O)(=O)C(F)(F)F)c4)cc3)CC2)C1 [Navitoclax] (partner 0.5 µM)
Method in brief: as §1

[2] = compound: C1/C(=C\C2=CC=CS2)/C(=O)/C(=C/C3=CC=CS3)/C1 + CC(=O)c1c(C)c2cnc(Nc3ccc(N4CCNCC4)cn3)nc2n(C2CCCC2)c1=O [Palbociclib] (partner 0.5 µM)
Method in brief: as §1

TPCA-1 + Tozasertib = compound: C1=CC(=CC=C1C2=CC(=C(S2)NC(=O)N)C(=O)N)F [TPCA-1] + Cc1cc(Nc2cc(N3CCN(C)CC3)nc(Sc3ccc(NC(=O)C4CC4)cc3)n2)n[nH]1 [Tozasertib] (partner 0.1 µM)
Method in brief: as §1

Cell Line | relative viability (Lestaurtinib + AZD7762; first compound 0.005 µM) | relative viability (Lestaurtinib + AZD7762; first compound 0.01581 µM) | relative viability (Lestaurtinib + AZD7762; first compound 0.05 µM) | relative viability (Lestaurtinib + AZD7762; first compound 0.1581 µM) | relative viability (Lestaurtinib + AZD7762; first compound 0.5 µM) | relative viability ([1]; first compound 0.005 µM) | relative viability ([1]; first compound 0.01581 µM) | relative viability ([1]; first compound 0.05 µM) | relative viability ([1]; first compound 0.1581 µM) | relative viability ([1]; first compound 0.5 µM) | relative viability ([2]; first compound 0.2 µM) | relative viability ([2]; first compound 0.6325 µM) | relative viability ([2]; first compound 2 µM) | relative viability ([2]; first compound 6.325 µM) | relative viability ([2]; first compound 20 µM) | relative viability (TPCA-1 + Tozasertib; first compound 0.04 µM) | relative viability (TPCA-1 + Tozasertib; first compound 0.1265 µM) | relative viability (TPCA-1 + Tozasertib; first compound 0.4 µM) | relative viability (TPCA-1 + Tozasertib; first compound 1.265 µM) | relative viability (TPCA-1 + Tozasertib; first compound 4 µM)
NCI-H1666 | 0.753 | 0.903 | 0.933 | 1.01 | 0.654 | 1.18 | 1.05 | 1.08 | 0.581 | 0.355 | 0.68 | 0.645 | 0.624 | 0.521 | 0.672 | 0.627 | 0.598 | 0.635 | 0.543 | 0.461
NCI-H1734 | 0.502 | 0.512 | 0.447 | 0.326 | 0.18 | 0.849 | 0.957 | 0.657 | 0.512 | 0.159 | 0.386 | 0.336 | 0.346 | 0.225 | 0.359 | 0.272 | 0.29 | 0.266 | 0.264 | 0.264
NCI-H1755 | 0.437 | 0.401 | 0.492 | 0.344 | 0.25 | 1.01 | 0.944 | 0.633 | 0.265 | 0.223 | 0.432 | 0.454 | 0.458 | 0.333 | 0.409 | 0.57 | 0.526 | 0.52 | 0.511 | 0.374
NCI-H1793 | 0.406 | 0.485 | 0.357 | 0.422 | 0.303 | 0.504 | 0.745 | 0.393 | 0.334 | 0.232 | 0.343 | 0.368 | 0.351 | 0.306 | 0.315 | 0.33 |  | 0.307 | 0.235 | 0.165
NCI-H1915 | 0.751 | 0.745 | 0.655 | 0.52 | 0.24 | 0.766 | 0.801 | 0.774 | 0.724 | 0.503 | 0.507 | 0.55 | 0.515 | 0.459 | 0.5 | 0.435 | 0.428 | 0.435 | 0.362 | 0.229
NCI-H1944 | 0.609 | 0.514 | 0.623 | 0.487 | 0.228 | 1.12 | 1.01 | 0.956 | 0.673 | 0.638 | 0.349 | 0.371 | 0.349 |  | 0.317 | 0.239 | 0.252 | 0.239 | 0.247 | 0.208
NCI-H1975 | 0.806 | 0.86 | 0.693 | 0.745 | 0.511 | 1.25 | 1.23 | 1.03 | 0.666 | 0.473 | 0.661 | 0.547 | 0.426 | 0.506 | 0.549 | 0.796 | 0.697 | 0.737 | 0.407 | 0.312
NCI-H1993 | 0.581 | 0.553 | 0.619 | 0.632 | 0.47 | 1.16 | 0.991 | 0.846 | 0.632 | 0.7 | 0.643 | 0.639 | 0.595 | 0.562 | 0.646 | 0.573 | 0.562 | 0.655 | 0.606 | 0.559
